# In patent US9051304B2, “Carboxamide compounds and their use as calpain inhibitors V” (AbbVie Deutschland GmbH & Co. KG, priority 2009, dated 2015):
# Assays:
# Assay type in all cases: biochemical
# [1] = target: T1, calpain-I isolated from human erythrocytes (Homo sapiens, UniProt P07384); assay: Calpain I enzyme inhibition, kinetic fluorescence assay; settings: apparent Ki from IC50 by Cheng-Prussoff; human erythrocyte calpain-I
# T1 construct: calpain-I—isolated from human erythrocytes; purchased Calbiochem 208713; host or cells: human erythrocytes (tissue isolate)
# T1 sequence (P07384 1-714): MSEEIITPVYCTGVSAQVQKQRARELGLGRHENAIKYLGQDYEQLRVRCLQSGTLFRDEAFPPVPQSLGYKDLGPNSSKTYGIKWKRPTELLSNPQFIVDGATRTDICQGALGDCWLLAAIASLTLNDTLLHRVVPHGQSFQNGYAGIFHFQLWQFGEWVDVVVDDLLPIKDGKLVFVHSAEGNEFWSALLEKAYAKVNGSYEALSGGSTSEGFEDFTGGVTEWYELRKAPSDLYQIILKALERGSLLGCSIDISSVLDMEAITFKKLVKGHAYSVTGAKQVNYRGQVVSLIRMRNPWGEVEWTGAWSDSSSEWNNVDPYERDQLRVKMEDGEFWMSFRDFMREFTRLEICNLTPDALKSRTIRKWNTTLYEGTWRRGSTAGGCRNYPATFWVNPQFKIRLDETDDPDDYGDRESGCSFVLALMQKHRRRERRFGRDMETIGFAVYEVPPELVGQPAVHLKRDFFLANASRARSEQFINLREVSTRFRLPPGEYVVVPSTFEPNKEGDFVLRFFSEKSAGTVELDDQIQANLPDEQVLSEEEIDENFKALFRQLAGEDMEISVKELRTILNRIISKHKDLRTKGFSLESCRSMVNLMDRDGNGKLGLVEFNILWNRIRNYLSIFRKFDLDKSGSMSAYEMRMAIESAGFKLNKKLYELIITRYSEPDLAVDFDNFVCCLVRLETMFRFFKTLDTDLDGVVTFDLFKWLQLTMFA
# T1 sequence (P04632 1-268 partner): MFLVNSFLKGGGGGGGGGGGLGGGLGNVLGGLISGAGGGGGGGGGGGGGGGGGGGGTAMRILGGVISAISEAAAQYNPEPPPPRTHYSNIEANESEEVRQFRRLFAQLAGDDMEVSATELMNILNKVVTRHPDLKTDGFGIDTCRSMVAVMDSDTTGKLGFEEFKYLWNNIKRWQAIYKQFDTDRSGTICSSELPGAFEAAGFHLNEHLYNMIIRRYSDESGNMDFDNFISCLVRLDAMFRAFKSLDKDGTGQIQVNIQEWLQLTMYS
# Description: (§1) I Enzyme Inhibition in vitro:
# (§2) Testing for blockade of the corresponding enzymic activities was carried out by means of kinetic fluorescence assays (excitation 390 nm, emission 460 nm).
# (§3) Apparent Ki values were calculated from the experimentally determined IC50 values by the Cheng-Prussoff relation assuming a reversible competitive enzyme inhibition.
# 20 nM calpain-I—isolated from human erythrocytes (Calbiochem #208713), 100 μM Suc-Leu-Tyr-AMC (Bachem #I-1355) as substrate in buffer with 62 mM imidazole, 0.3 mM CaCl2, 0.10% CHAPS, 0.05% BSA, 1 mM DTT at pH 7.3 and room temperature.
# [2] = target: T2, cathepsin B isolated from human liver (Homo sapiens, UniProt P07858); assay: Cathepsin B enzyme inhibition, kinetic fluorescence assay; settings: selectivity ratio vs calpain
# T2 construct: cathepsin B—isolated from human liver; purchased Calbiochem 219362; host or cells: human liver (tissue isolate)
# Description: as §1, §2, §3
# 0.25 nM cathepsin B—isolated from human liver (Calbiochem #219362), 100 μM Z-Phe-Arg-AMC (Bachem #I-1160) as substrate 50 mM MES, 2 mM EDTA, 0.05% Brij 35, 2.5 mM L-cysteine, pH 6.0, room temperature.
# [3] = target: T3, cathepsin K activated from recombinant human procathepsin K (Homo sapiens, UniProt P43235); assay: Cathepsin K enzyme inhibition, kinetic fluorescence assay; settings: selectivity ratio vs calpain
# T3 construct: purchased Calbiochem 342001; host or cells: E. coli
# T3 sequence (P43235 115-329): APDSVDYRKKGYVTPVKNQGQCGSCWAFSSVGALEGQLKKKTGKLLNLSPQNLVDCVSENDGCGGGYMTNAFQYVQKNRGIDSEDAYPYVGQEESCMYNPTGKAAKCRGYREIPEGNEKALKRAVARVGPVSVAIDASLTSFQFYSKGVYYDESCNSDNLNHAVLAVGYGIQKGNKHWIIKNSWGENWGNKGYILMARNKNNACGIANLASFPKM
# Description: as §1, §2, §3
# 3 nM cathepsin K—activated from recombinant human procathepsin K from E. coli (Calbiochem #342001), 10 μM Z-Gly-Pro-Arg-AMC (Biomol #P-142) as substrate in 50 mM MES, 2 mM EDTA, 0.05% Brij 35, 2.5 mM L-cysteine, pH 6.0, room temperature.
# [4] = target: T4, cathepsin L isolated from human liver (Homo sapiens, UniProt P07711); assay: Cathepsin L enzyme inhibition, kinetic fluorescence assay; settings: selectivity ratio vs calpain
# T4 construct: cathepsin L—isolated from human liver; purchased Calbiochem 219402; host or cells: human liver (tissue isolate)
# Description: as §1, §2, §3
# 1 nM cathepsin L—isolated from human liver (Calbiochem #219402), 2 μM Z-Phe-Arg-AMC (Bachem #I-1160) as substrate in 50 mM MES, 2 mM EDTA, 0.05% Brij 35, 2.5 mM L-cysteine, pH 6.0, room temperature.
# [5] = target: T5, recombinant human cathepsin S (Homo sapiens, UniProt P25774); assay: Cathepsin S enzyme inhibition, kinetic fluorescence assay; settings: selectivity ratio vs calpain
# T5 construct: purchased Calbiochem 219343; host or cells: E. coli
# Description: as §1, §2, §3
# 0.5 nM recombinant human cathepsin S from E. coli (Calbiochem #219343), 20 μM Z-Val-Val-Arg-AMC (Bachem #I-1540) as substrate in 50 mM MES, 2 mM EDTA, 0.05% Brij 35, 2.5 mM L-cysteine, pH 6.0, room temperature.
# T4 sequence (P07711 114-333): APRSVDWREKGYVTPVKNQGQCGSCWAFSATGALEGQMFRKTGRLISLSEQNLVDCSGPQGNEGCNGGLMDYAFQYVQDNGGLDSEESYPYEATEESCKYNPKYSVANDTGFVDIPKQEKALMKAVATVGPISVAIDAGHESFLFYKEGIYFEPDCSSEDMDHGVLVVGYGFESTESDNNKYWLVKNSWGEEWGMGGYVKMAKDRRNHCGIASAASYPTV
# T5 sequence (P25774 115-331): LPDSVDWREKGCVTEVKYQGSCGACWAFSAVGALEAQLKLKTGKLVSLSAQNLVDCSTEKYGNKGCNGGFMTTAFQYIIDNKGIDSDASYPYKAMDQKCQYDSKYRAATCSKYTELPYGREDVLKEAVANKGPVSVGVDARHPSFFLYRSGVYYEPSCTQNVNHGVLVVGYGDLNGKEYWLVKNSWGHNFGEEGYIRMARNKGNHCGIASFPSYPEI
Ki [1] [nM],SMILES,other results
< 200,"CCONC(=O)C(=O)C(Cc1ccc(F)cc1)NC(=O)c1cccnc1-n1ccc(-c2ccccc2)n1 (centres unmarked) [Example 18, N-[4-(Ethoxyamino)-1-(4-fluorophenyl)-3,4-dioxo-2-butanyl]-2-(3-phenyl-1H-pyrazol-1-yl)nicotinamide]",
200 to 300,"CONC(=O)C(=O)C(Cc1ccccc1)NC(=O)c1cccnc1-n1ccc(-c2ccc(F)cc2)n1 (centres unmarked) [Example 1, 2-[3-(4-Fluorophenyl)-1H-pyrazol-1-yl]-N-[4-(methoxyamino)-3,4-dioxo-1-phenylbutan-2-yl]pyridine-3-carboxamide]",
< 200,"CCONC(=O)C(=O)C(Cc1ccccc1)NC(=O)c1cccnc1-n1cc(F)c(-c2ccccc2)n1 (centres unmarked) [Example 19, N-[4-(Ethoxyamino)-3,4-dioxo-1-phenyl-2-butanyl]-2-(4-fluoro-3-phenyl-1H-pyrazol-1-yl)nicotinamide]",
200 to 300,"CONC(=O)C(=O)C(Cc1cccc(F)c1)NC(=O)c1cccnc1-n1ccc(-c2ccccc2)n1 (centres unmarked) [Example 6, N-(1-(3-Fluorophenyl)-4-(methoxyamino)-3,4-dioxobutan-2-yl)-2-(3-phenyl-1H-pyrazol-1-yl)nicotinamide]",
300 to 600,"CONC(=O)C(=O)C(Cc1ccccc1)NC(=O)c1cccnc1-n1cc(Cl)c(-c2ccccc2)n1 (centres unmarked) [Example 10, 2-(4-Chloro-3-phenyl-1H-pyrazol-1-yl)-N-(4-(methoxyamino)-3,4-dioxo-1-phenylbutan-2-yl)nicotinamide]",Sel cat. B (Ki(cathepsin B)/Ki(calpain) ratio) [2]: ∘; Sel cat. K (Ki(cathepsin K)/Ki(calpain) ratio) [3]: + (+ means 2≦Ki(cathepsin K)/Ki(calpain)≦4); Sel cat. L (Ki(cathepsin L)/Ki(calpain) ratio) [4]: ++ (++ means 10<Ki(cathepsin L)/Ki(calpain)≦50); Sel cat. S (Ki(cathepsin S)/Ki(calpain) ratio) [5]: ++ (++ means 10<Ki(cathepsin S)/Ki(calpain)≦50)
< 200,"O=C(NOCC1CC1)C(=O)C(Cc1ccccc1)NC(=O)[C@H]1CCC(=O)N1Cc1ccccc1 (stereo partly drawn) [Example 31, (2R)-1-benzyl-N-(4-(cyclopropylmethoxyamino)-3,4-dioxo-1-phenylbutan-2-yl)-5-oxopyrrolidine-2-carboxamide]",Sel cat. B (Ki(cathepsin B)/Ki(calpain) ratio) [2]: + (+ means 2≦Ki(cathepsin B)/Ki(calpain)≦4); Sel cat. K (Ki(cathepsin K)/Ki(calpain) ratio) [3]: ∘; Sel cat. L (Ki(cathepsin L)/Ki(calpain) ratio) [4]: ∘; Sel cat. S (Ki(cathepsin S)/Ki(calpain) ratio) [5]: ++ (++ means 10<Ki(cathepsin S)/Ki(calpain)≦50)
200 to 300,"CC(C)(C)CONC(=O)C(=O)C(Cc1ccccc1)NC(=O)c1cccnc1-n1ccc(-c2ccccc2)n1 (centres unmarked) [Example 21, N-{4-[(2,2-Dimethylpropoxy)amino]-3,4-dioxo-1-phenyl-2-butanyl}-2-(3-phenyl-1H-pyrazol-1-yl)nicotinamide]",Sel cat. B (Ki(cathepsin B)/Ki(calpain) ratio) [2]: + (+ means 2≦Ki(cathepsin B)/Ki(calpain)≦4); Sel cat. K (Ki(cathepsin K)/Ki(calpain) ratio) [3]: ∘; Sel cat. L (Ki(cathepsin L)/Ki(calpain) ratio) [4]: ∘; Sel cat. S (Ki(cathepsin S)/Ki(calpain) ratio) [5]: + (+ means 5≦Ki(cathepsin S)/Ki(calpain)≦10)
300 to 600,"CONC(=O)C(=O)C(Cc1ccccc1)NC(=O)c1cccnc1-n1cc(C)c(-c2ccccc2)n1 (centres unmarked) [Example 4, N-[4-(Methoxyamino)-3,4-dioxo-1-phenylbutan-2-yl]-2-(4-methyl-3-phenyl-1H-pyrazol-1-yl)pyridine-3-carboxamide]",
< 200,"CONC(=O)C(=O)C(Cc1ccccc1)NC(=O)c1cccnc1-n1ccc(-c2ccccc2)n1 (centres unmarked) [Example 2, N-(4-(Methoxyamino)-3,4-dioxo-1-phenylbutan-2-yl)-2-(3-phenyl-1H-pyrazol-1-yl)nicotinamide]",
< 200,"C=CCONC(=O)C(=O)C(Cc1ccccc1)NC(=O)c1cccnc1-n1ccc(-c2ccccc2)n1 (centres unmarked) [Example 8, N-(4-(Allyloxyamino)-3,4-dioxo-1-phenylbutan-2-yl)-2-(3-phenyl-1H-pyrazol-1-yl)nicotinamide]",
< 200,"CONC(=O)C(=O)C(Cc1ccccc1)NC(=O)c1cccnc1-n1ccc(-c2ccccc2F)n1 (centres unmarked) [Example 25, 2-[3-(2-Fluorophenyl)-1H-pyrazol-1-yl]-N-[4-(methoxyamino)-3,4-dioxo-1-phenyl-2-butanyl]nicotinamide]",
< 200,"CONC(=O)C(=O)C(Cc1ccccc1)NC(=O)c1cccnc1-n1cc(F)c(-c2ccccc2)n1 (centres unmarked) [Example 3, 2-(4-Fluoro-3-phenyl-1H-pyrazol-1-yl)-N-(4-(methoxyamino)-3,4-dioxo-1-phenylbutan-2-yl)nicotinamide]",
< 200,"O=C(NOCC1CC1)C(=O)C(Cc1ccccc1)NC(=O)c1cccnc1-n1ccc(-c2ccccc2)n1 (centres unmarked) [Example 23, N-{4-[(Cyclopropylmethoxy)amino]-3,4-dioxo-1-phenyl-2-butanyl}-2-(3-phenyl-1H-pyrazol-1-yl)nicotinamide]",
200 to 300,"O=C(NOCCN1CCOCC1)C(=O)C(Cc1ccccc1)NC(=O)c1cccnc1-n1ccc(-c2ccccc2)n1 (centres unmarked) [Example 22, N-(4-{[2-(4-Morpholinyl)ethoxy]amino}-3,4-dioxo-1-phenyl-2-butanyl)-2-(3-phenyl-1H-pyrazol-1-yl)nicotinamide]",
< 200,"O=C(NOC1CCC1)C(=O)C(Cc1ccccc1)NC(=O)c1cccnc1-n1ccc(-c2ccccc2)n1 (centres unmarked) [Example 20, N-{4-[(Cyclobutyloxy)amino]-3,4-dioxo-1-phenyl-2-butanyl}-2-(3-phenyl-1H-pyrazol-1-yl)nicotinamide]",
300 to 600,"CONC(=O)C(=O)C(Cc1ccc(F)cc1)NC(=O)c1cccnc1-n1ccc(-c2ccccc2)n1 (centres unmarked) [Example 5, N-(1-(4-Fluorophenyl)-4-(methoxyamino)-3,4-dioxo-butan-2-yl)-2-(3-phenyl-1H-pyrazol-1-yl)nicotinamide]",
< 200,"NC(=O)C(=O)C(Cc1ccccc1)NC(=O)c1cccnc1-n1ccc(-c2ccc(F)cc2)n1 (centres unmarked) [28 (comp.), N-(3-Amino-1-benzyl-2,3-dioxopropyl)-2-[3-(4-fluorophenyl)-1H-pyrazol-1-yl]nicotinamide, reference compound]",
< 200,"CC(C)ONC(=O)C(=O)C(Cc1ccccc1)NC(=O)c1cccnc1-n1ccc(-c2ccccc2)n1 (centres unmarked) [Example 11, N-[4-(Isopropoxyamino)-3,4-dioxo-1-phenyl-2-butanyl]-2-(3-phenyl-1H-pyrazol-1-yl)nicotinamide]",
200 to 300,"O=C(NOC1CCCC1)C(=O)C(Cc1ccccc1)NC(=O)c1cccnc1-n1ccc(-c2ccccc2)n1 (centres unmarked) [Example 17, N-{4-[(Cyclopentyloxy)amino]-3,4-dioxo-1-phenyl-2-butanyl}-2-(3-phenyl-1H-pyrazol-1-yl)nicotinamide]",
< 200,"CCCONC(=O)C(=O)C(Cc1ccccc1)NC(=O)c1cccnc1-n1ccc(-c2ccccc2)n1 (centres unmarked) [Example 12, N-[3,4-Dioxo-1-phenyl-4-(propoxyamino)-2-butanyl]-2-(3-phenyl-1H-pyrazol-1-yl)nicotinamide]",
